What all share (format): cell-based
Data set [1] concerns Acinetobacter baumannii 872842. The following applies: 872842. An outline of the steps:
(§1)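 MIC in μg/mL, read as absence of visible growth after 18-20 h incubation at 35° C, by standard CLSI microdilution. Peptides tested in two-fold serial dilution in cation-adjusted MH-II broth containing 0.002% (final) Polysorbate 80, against roughly 10^6 CFU/mL inocula.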

The subject of data set [2] is Klebsiella pneumoniae SSI #3010. The note with it: SSI #3010. In short, it runs like this:
as §1

For data set [3], the system named is Pseudomonas aeruginosa ATCC 27853. The following applies: ATCC 27853. An outline of the steps:
as §1

Data set [4] deals with Acinetobacter baumannii DSM 30008. The note with it: DSM 30008. An outline of the steps:
as §1

Data set [5] concerns Enterobacter cloacae 848840. The note with it: 848840. In short, it runs like this: as §1
Data set [6] concerns Escherichia coli ATCC 25922. The following applies: ATCC 25922. An outline of the steps: as §1
In data set [7] the test system is Escherichia coli 926415. The following applies: 926415. An outline of the steps:
as §1

Data set [8] relates to Klebsiella pneumoniae 968733. The note with it: 968733. In short, it runs like this: as §1
Data set [9] deals with human red blood cells (hRBC). The experiment in a line: Hemolysis. The following applies: red cells of human, 1 h, 200. An outline of the steps:
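Percent hemolysis relative to 2% Triton X-100 (100%) and PBS/10% water (0%), from blank-corrected OD540 of diluted supernatants. Peptides tested at 200 μg/mL against 20% (v/v) washed human erythrocytes, 1 h, 37° C, shaking at 300 rpm.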

Here are results for three compounds from US11629171B2, “Beta-hairpin peptidomimetics” (POLYPHOR AG, priority 2017, dated 2023).

In brackets after ≈: the same amount, converted by molar mass. Where a SMILES comes first, the peptide text is derived from it. Bridges are numbered along the chain shown (N, C = ends). Roman numbers before positions name the chains, in order. [ ]: non-standard residue; d: D form. Tle = CC(C)(C)[C@H](N)C(=O)O; NMeV = CN[C@H](C(=O)O)C(C)C; dDab = NCC[C@@H](N)C(=O)O; hSer = N[C@@H](CCO)C(=O)O; Dab = NCC[C@H](N)C(=O)O; Dap = NC[C@H](N)C(=O)O

For `CC(=O)N[C@H](C(=O)N[C@H]1CCNC(=O)CC[C@@H](C(=O)N[C@@H](CO)C(N)=O)NC(=O)[C@H](C(C)C)NC(=O)[C@H](CO)NC(=O)[C@H](Cc2c[nH]c3ccccc23)NC(=O)[C@H](CO)NC(=O)[C@@H](CCN)NC(=O)[C@H](CCC(=O)N[C@@H](CCN)C(=O)N[C@H](C(=O)N[C@@H](CCN)C(=O)N[C@H]2CCNC(=O)[C@H]([C@@H](C)O)NC(=O)[C@H](CCN)NC(=O)[C@H](CCN)NC(=O)[C@H](CC(C)C)NC(=O)[C@@H](CC(C)C)NC(=O)[C@H](CCN)NC2=O)[C@@H](C)O)NC(=O)[C@H](CCN)NC(=O)[C@H](Cc2ccc(O)cc2)NC1=O)C(C)C` [Ex. 321] (I: Ac-V[Dab]Y[Dab]E[dDab]SWSVES-NH2 / II: [Dab]T[Dab][Dab][Dab][dL]L[Dab][Dab]T; lactam I:2-I:11, II:4-II:C; amide I:5-II:N), the MIC in data set [1] came to 0.25 µg/mL (≈ 0.103 µM); in data set [5], 0.25 µg/mL (≈ 0.103 µM); in [7], 0.5 µg/mL (≈ 0.207 µM); in data set [8], 1 µg/mL (≈ 0.413 µM). Moreover, the “Klebsiella pneumoniae SSI #3010 MIC” value in [2] was determined as 0.125 µg/mL. Besides, the “Pseudomonas aeruginosa ATCC 27853 MIC” value in data set [3] is 0.125 µg/mL. In data set [4], the “Acinetobacter baumannii DSM 30008 MIC” value was 0.125 µg/mL. The “Escherichia coli ATCC 25922 MIC” value in data set [6] was 0.0625 µg/mL. Moreover, in [9], the “Hemolysis at 200 μg/mL” value turned out to be 0%.

Consider `CN[C@H](C(=O)N[C@H]1CSSC[C@@H](C(N)=O)NC(=O)[C@H](C(C)C)NC(=O)[C@H](CCO)NC(=O)[C@H](Cc2c[nH]c3ccccc23)NC(=O)[C@H](CCO)NC(=O)[C@@H](CCN)NC(=O)[C@H](CCC(=O)N[C@@H](CCN)C(=O)N[C@H](C(=O)N[C@@H](CCN)C(=O)N[C@H]2CCNC(=O)[C@H]([C@@H](C)O)NC(=O)[C@H](CCN)NC(=O)[C@H](CCN)NC(=O)[C@H](CC(C)C)NC(=O)[C@@H](CC(C)C)NC(=O)[C@H](CCN)NC2=O)[C@@H](C)O)NC(=O)[C@H](CCN)NC(=O)[C@H](Cc2ccc(O)cc2)NC1=O)C(C)C` [Example 57] (I: H-[NMeV]CY[Dab]E[dDab][hSer]W[hSer]VC-NH2 / II: [Dab]T[Dab][Dab][Dab][dL]L[Dab][Dab]T; disulfide I:2-I:11; amide I:5-II:N; lactam II:4-II:C), for which the MIC is 0.5 µg/mL (≈ 0.215 µM) in data set [1]; 0.25 µg/mL (≈ 0.107 µM) in [2]; 0.25 µg/mL (≈ 0.107 µM) in data set [3]; 0.125 µg/mL (≈ 0.0537 µM) in data set [4]; 0.25 µg/mL (≈ 0.107 µM) in [5]; 0.125 µg/mL (≈ 0.0537 µM) in data set [6]. In addition, the figures for the MIC in data set [7] and in [8] were 0.5 µg/mL (≈ 0.215 µM) and 4 µg/mL (≈ 1.72 µM), respectively. In data set [9], the “Hemolysis at 200 μg/mL” value is reported as 3%.

Regarding `CC(=O)N[C@H](C(=O)N[C@H]1CSSC[C@@H](C(=O)N[C@H](C(N)=O)[C@@H](C)O)NC(=O)[C@H](C(C)(C)C)NC(=O)[C@H](CO)NC(=O)[C@H](Cc2c[nH]c3ccccc23)NC(=O)[C@H](CO)NC(=O)[C@@H](CCN)NC(=O)[C@H](CCC(=O)N[C@@H](CCN)C(=O)N[C@H](C(=O)N[C@@H](CN)C(=O)N[C@H]2CCNC(=O)[C@H]([C@@H](C)O)NC(=O)[C@H](CCN)NC(=O)[C@H](CCN)NC(=O)[C@H]([C@@H](C)O)NC(=O)[C@@H](CC(C)C)NC(=O)[C@H](CCN)NC2=O)[C@@H](C)O)NC(=O)[C@H](CCN)NC(=O)[C@H](Cc2ccc(O)cc2)NC1=O)C(C)C` [Ex. 139] (I: Ac-VCY[Dab]E[dDab]SWS[Tle]CT-NH2 / II: [Dab]T[Dap][Dab][Dab][dL]T[Dab][Dab]T; disulfide I:2-I:11; amide I:5-II:N; lactam II:4-II:C), the MIC in [1] came to 0.0625 µg/mL (≈ 0.0259 µM); in data set [2], 0.0625 µg/mL (≈ 0.0259 µM); in [3], 0.25 µg/mL (≈ 0.104 µM); in data set [4] it was 0.0625 µg/mL (≈ 0.0259 µM); in data set [5], 0.125 µg/mL (≈ 0.0518 µM); in data set [6], 0.0625 µg/mL (≈ 0.0259 µM). The results for the MIC in data set [7] and in [8] were 0.125 µg/mL (≈ 0.0518 µM) and 0.25 µg/mL (≈ 0.104 µM), respectively. The “Hemolysis at 200 μg/mL” value in [9] was found to be 2%.

For orientation: MIC means the least concentration at which growth counts as inhibited. Read a high MIC as a need for much substance.
